This note sets out measurements from US8609725B2, “Method of using beta-hydroxy-beta-methylbutyrate for reducing tumor growth rate” (Abbott Laboratories, priority 2004, dated 2013).

Assay [1] has as its system mice bearing the MAC16 tumor. Description: Body composition analysis of mice bearing the MAC16 tumor. Type of assay: in vivo. The text has this:
Materials and animals were obtained as per Example 1.

Assay [2] has as its system ubiquitin-conjugating enzyme, E214k. Description: Western blotting of E214k in gastrocnemius muscle of MAC16 mice. Type of assay: in vivo, NMRI mice. To be noted: HMB 0.25 g/kg, EPA 0.6 g/kg or combination, 3 days. How it is done: For Western blotting samples of soleus muscle cytosolic protein (2 to 5 μg), obtained from the above assay, were resolved on 10% SDS-PAGE and transferred to 0.45 μm nitrocellulose membrane (HybondTM, Amersham Life Science Products, Bucks, United Kingdom), which had been blocked with 5% Marvel in PBS. The primary antibodies for MSS1 and p42 were used at a dilution of 1:5000, for 20S proteasome α-subunits at 1:1500 and for β-subunits at 1:1000, while the antibody for […] was used at a dilution of 1:500. The secondary antibodies were used at a dilution of 1:2000. Mouse monoclonal antibodies to 20S proteasome subunits a 1, 2, 3, 5, 6 and 7 (clone MCP 231), 20S proteasome subunit β3 (HC10), 19S regulator ATPase subunit […]1; clone MSS1-104) and 19S regulator ATPase subunit Rpt 4 ([…], p42; clone p42-23) were purchased from Affiniti Research Products, Exeter, United Kingdom. Rabbit polyclonal antisera to ubiquitin-conjugating enzyme E2 (anti-UBC2 antibody) was a gift from Dr. Simon Wing, McGill University, Montreal, Quebec, Canada. Peroxidase-conjugated goat anti-rabbit and rabbit anti-mouse secondary antibodies were from Dako Ltd., Cambridge, United Kingdom. Incubation was carried out for 2 h at room temperature, and developed by chemiluminescence (ECL; Amersham).
(In general: In western blotting, separated proteins are transferred to a membrane and probed.)

Assay [3] concerns β subunits of the proteasome. Description: 'Chymotrypsin-like' enzyme activity in PIF-treated murine myotubes. Type of assay: cell-based. How it is done:
The functional activity of the β subunits of the proteasome was determined as the ‘chymotrypsin-like’ enzyme activity obtained fluorimetrically according to the method of Orino, E. et al. ATP-dependent reversible association of proteasomes with multiple protein components to form 26S complexes that degrade ubiquitinated proteins in human HL-60 cells. FEBS Lett., 284: 206-210, 1991. Myotubes were exposed to PIF for 24 h with or without EPA or HMB added 2 h prior to PIF and enzyme activity was determined in a supernatant fraction (Whitehouse, A. S. et al. Increased expression of the ubiquitin-proteasome pathway in murine myotubes by proteolysis-inducing factor (PIF) is associated with activation of the transcription factor NF-κB. Br. J. Cancer, 89: 1116-1122, 2003) by the release of aminomethyl coumarin (AMC) from succinyl-LLVY-AMC (0.1 mM) in the presence or absence of the specific proteasome inhibitor lactacystin (10 μM) (Fenteany, G. et al. Lactacystin, proteasome function and cell fate. J. Biol. Chem., 273: 8545-8548, 1998). Only lactacystin suppressible activity was considered to be proteasome specific. Activity was adjusted for the protein concentration of the sample, determined using the Bradford assay (Sigma Chemical Co., Dorset, United Kingdom) using bovine serum albumin as standard.

Assay [4] has as its system gastrocnemius muscle of mice bearing the MAC16 tumor. Description: Protein synthesis and degradation in gastrocnemius muscle of MAC16 mice. Type of assay: in vivo. On the procedure:
Protein synthesis was measured by the incorporation of L-[4-3H]phenylalanine during a 2-hour period in which isolated gastrocnemius muscles were incubated at 37° C. in RPMI 1640 without phenol red and saturated with O2/CO2 (19:1). After incubation muscles were rinsed in nonradioactive medium, blotted dry, and homogenized in 4 mL 2% perchloric acid. The rate of protein synthesis was calculated by dividing the protein-bound radioactivity by the acid-soluble (unbound) material. For protein degradation assays animals from the same group as used to measure protein synthesis were given i.p. 0.4 mmol/L L-[4-3H]phenylalanine in PBS (100 μl) 24 hours prior to the assay. Isolated gastrocnemius muscles were extensively washed with PBS and RPMI 1640 before measuring the release of radioactivity into RPMI 1640 over a 2-hour period. The protein-bound activity was determined by homogenizing the muscles in 2% perchloric acid and determining the non-acid-soluble radioactivity (radioactivity in the precipitate). The rate of protein degradation was calculated by dividing the amount of [^3H]phenylalanine radioactivity released into the incubation medium during the 2-hour incubation period by the specific activity of protein-bound [^3H] phenylalanine.

The subject of the next assay is phospholipase A (PLA). Description: Arachidonic acid release / PLA activation. The class given is cell-based, murine. To be noted: mechanism statement. On the procedure:
For measurement of arachidonic acid release, myotubes in six-well multi dishes containing 2 ml DMEM with 2% HS were labeled for 24 h with 10 μM arachidonic acid (containing 1 μCi of [^3H] arachidonate/ml) (Smith, H. et al. Effect of a cancer cachectic factor on protein synthesis/degradation in murine C2C12 myoblasts: Modulation by eicosapentaenoic acid. Cancer Res., 59: 5507-5513, 1999). Cells were then washed extensively with PBS to remove traces of unincorporated [^3H] arachidonate and either EPA or HMB was added 2 h prior to PIF. After a further 24 h 1 ml of medium was removed to determine the radioactivity released.

Where [5] appears, read: HMB 0.25 and 2.5 g/kg daily p.o., 3 days, vs PBS control.

`CC(C)(O)CC(=O)O` [HMB, beta-hydroxy-beta-methylbutyric acid]: in assay [1] (HMB 0.125 g/kg for 5 days), the “Fat (%)” value is listed as 3.3 ± 1.6%, the “Nonfat (%)” value was found to be 31.2 ± 1.5 % and the “Water (%)” value came to 65.5 ± 0.9%. In assay [1] (HMB 0.25 g/kg for 5 days), the “Fat (%)” value is recorded as 4.4 ± 1.3%, the “Nonfat (%)” value amounted to 29.2 ± 1.9 % and the “Water (%)” value stood at 66.5 ± 2.2%. In assay [1] (HMB 0.5 g/kg for 5 days), the “Fat (%)” value worked out at 3.8 ± 1.2%, the “Nonfat (%)” value worked out at 29.0 ± 1.4 % and the “Water (%)” value is on record as 67.2 ± 2.3%. For the same compound, in assay [1] (HMB for 5 days, in words), the adipose tissue entry is “without an effect” and the nonfat carcass mass result is “significant increase”. For the same compound, the “expression of E214k” value in assay [2] is reported as “reduced”. Moreover, the “attenuation of PIF-induced increase in 'chymotrypsin-like' enzyme activity” value in assay [3] (25 μM HMB) is “completely attenuated”. In assay [3] (50 μM), the “attenuation of PIF-induced increase in 'chymotrypsin-like' enzyme activity” value is on record as “completely attenuated”. Moreover, in assay [4] (setting [5]), the “protein degradation in gastrocnemius muscle” value is given as “attenuated” and the “protein synthesis in gastrocnemius muscle” value is recorded as “significantly increased”. The “increase in the ratio of protein synthesis to protein degradation in muscle” value in assay [4] (HMB 0.25 g/kg) is 14 fold. Further, in assay [4] (HMB 2.5 g/kg), the “increase in the ratio of protein synthesis to protein degradation in muscle” value is reported as 32 fold. Besides, the “activation of PLA or release of AA” value in the assay with phospholipase A (PLA) was “not preventing”.
